# Assay results as given in publication PMC9026285 (ACS Chemical Neuroscience, 2022).
# Tests used:
# recombinant human HexA = target: T1, recombinant human HexA (Homo sapiens, UniProt P06865); assay: Hexosaminidase A assay; type: biochemical
# T1 sequence (P06865 89-529): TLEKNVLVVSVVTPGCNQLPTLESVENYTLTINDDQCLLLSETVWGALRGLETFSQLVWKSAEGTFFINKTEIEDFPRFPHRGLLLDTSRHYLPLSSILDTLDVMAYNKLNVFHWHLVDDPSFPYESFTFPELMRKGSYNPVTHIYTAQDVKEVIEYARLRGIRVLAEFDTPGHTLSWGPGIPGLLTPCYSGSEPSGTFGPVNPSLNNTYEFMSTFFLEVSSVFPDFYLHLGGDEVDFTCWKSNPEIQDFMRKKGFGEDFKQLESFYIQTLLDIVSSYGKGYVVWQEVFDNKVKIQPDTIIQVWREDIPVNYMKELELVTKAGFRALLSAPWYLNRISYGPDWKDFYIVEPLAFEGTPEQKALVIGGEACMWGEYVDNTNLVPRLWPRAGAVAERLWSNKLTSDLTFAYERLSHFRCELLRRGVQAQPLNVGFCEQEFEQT
# [1] = target: HexA/B from human placenta; assay: Hexosaminidase A/B assay; type: biochemical
# [2] = cited from earlier work
# [3] = system: protein O-GlcNAcylation in human PBMC; assay: In vitro PBMC cell-based assay, human PBMC; conditions: 4 h, read-out: EC50, protein O-GlcNAcylation in human PBMC
# hTauP301L mice = assay: Chronic; type: in vivo, mouse; conditions: P301L mice
# [4] = system: Line 61 α-synuclein transgenic mice; assay: Beam walk test in Line 61 α-synuclein transgenic mice, chronic treatment; type: in vivo, mouse; conditions: Line 61 mice, 30 and 100 mg/kg/day oral, after 12 weeks, persisted to week 24
# [5] = system: GFAP (astrogliosis), pS129 and human α-synuclein; assay: GFAP immunoassay and histopathology in Line 61 mice; type: in vivo, mouse; conditions: hippocampus, 24 weeks
# Half-life in mice = conditions: mouse, in vivo
# [6] = system: brain protein and α-synuclein O-GlcNAcylation; assay: O-protein and O-GlcNAcylated α-synuclein; conditions: Line 61 mice; for increase in brain protein O-GlcNAcylation (mean): 24 weeks, t = 4 h post-dose
# [7] = up to the highest concentration tested (30 μM)
smiles,measurement,setting,value
"CC(=O)N[C@H]1/C(=N/OC(=O)Nc2ccccc2)O[C@H](CO)[C@@H](O)[C@@H]1O [PUGNAc, reference compound]",IC50,recombinant human HexA,0.49 µM
same,IC50,[1]; read-out: IC50 HexA/B,0.031 µM
CCN=C1N[C@@H]2[C@@H](O)[C@H](O)[C@@H](CO)O[C@@H]2S1 [Thiamet G],brain-to-plasma ratio,[2],0.1
"CC(=O)Nc1nnc(N2CCN([C@@H](C)c3ccc4c(c3)OCO4)CC2)s1 [ASN90, (S)-N-(5-(4-(1-(benzo[d][1,3]dioxol-5-yl)ethyl)piperazin-1-yl)-1,3,4-thiadiazol-2-yl)acetamide]",inhibitory activity on HexA,recombinant human HexA; [7],no inhibitory activity
same,inhibitory activity on HexA/B,[1]; [7],no inhibitory activity
same,EC50,[3],0.209 µM
same,survival,"hTauP301L mice; 30 and 100 mg/kg/day oral, 6 months",significantly increased survival
same,effect on pathogenic tau pS202/205 (AT8),"hTauP301L mice; brainstem and hippocampus, chronic treatment",no statistically significant treatment effects
same,motor performance in three types of beam walk (slips),[4],highly significant treatment benefit
same,object size for pS129 α-synuclein immunoreactivity,[5],significant decrease
same,total α-synuclein immunoreactivity,[5],unchanged
same,half-life,Half-life in mice,2.8 h
same,increase in brain protein O-GlcNAcylation (mean),[6]; 30 mg/kg/day,+78%
same,increase of O-GlcNAcylated α-synuclein as % of total,"[6]; 100 mg/kg, chronic, vs vehicle",1.7 fold
same,increase in brain protein O-GlcNAcylation (mean),[6]; 100 mg/kg/day,+105%
